We go through three molecules from patent publication EP2054729B1, “PROCESS AND APPARATUS FOR ION CHANNEL CHARACTERIZATION” (Universität Hannover, priority 2006, dated 2008).

The target in the assay is T1, connexin hCx26 (Homo sapiens, UniProt P29033).
T1 construct: made in house; host or cells: E. coli Top10
In words: Permeation (gating activity) assay with ion channel protein in lipid membrane vesicles, fluorescence detection of Lucifer Yellow release. Conditions: for inhibitory effect: concentration range in which inhibition of gating activity was shown, same experimental setup as for carbenoxolone, vesicles adjusted to 50 µM Ca^2+, triggered by EDTA addition or heat pulse. In kind it is biochemical. As to the method: Lipid membrane vesicles are generated by resuspending a POPC lipid film in 150 mM sodium chloride, 10 mM Tris-HCl, pH 8, containing Lucifer Yellow as a replacement for the cation species permeated by the exemplary ion channel protein.
Following centrifugation, the supernatant is removed and vesicles are suspended in the same medium for 10 minutes. As the ion channel protein, connexin hCx26, reconstituted to its hexameric form after expression in the E.coli strain Top10 (Invitrogen), using the expression plasmid pTrcHisTOPO (available from Invitrogen, Germany) containing the hCx26 gene under the control of a trc-promoter. The gene sequence is accessible at GenBank under accession number NP 003995. Cultivation was in LB-medium containing ampicillin as the selection marker at 37 °C.
For incorporation of ion channel protein, 250 µg/mL were solubilised in 30 mM octylglucoside, 150 mM sodium chloride, 10 mM Tris-HCl, pH 8 and added to 1 mL lipid membrane vesicle suspension (10 mg POPC/mL). After incubation for 1 to 12 hours under mild agitation at 4 °C, detergent was removed by dialysis for two days at 4 °C in 150 mM sodium chloride, 10 mM Tris-HCl, pH 8, including three changes of buffer volume. Finally, the vesicles were transferred by dialysis against buffer into 150 mM sodium chloride, 10 mM Tris-HCl, pH 8 at 4 °C for removal of the ion species, namely the replacement Lucifer Yellow or the physiologically permeated ion potassium, which are permeated by the ion channel protein present. […]
Starting at a basic temperature of 4 °C, the microtiter plate was heated incrementally by steps of 2 °C each using a thermostat, with intermediate or permanent measurement of fluorescence emission under irradiation at the excitation wavelength.
From a comparison of the increase of fluorescence at increasing temperatures of a reaction composition containing the effector to that measured for an identical composition, except for the absence of effector, allows to characterize the effector at its given concentration in the assay, e.g. as an inhibitor, activator or modulator of the gating activity. […]

In the case of `CCCCCCCO` [heptanol], the inhibitory effect result is on record as “nanomolar to picomolar range”.

`CC1(C)[C@@H](OC(=O)CCC(=O)O)CC[C@]2(C)[C@H]3C(=O)C=C4[C@@H]5C[C@@](C)(C(=O)O)CC[C@]5(C)CC[C@@]4(C)[C@]3(C)CC[C@@H]12` [carbenoxolone]: the “concentration dependency of gating activity” value (carbenoxolone up to final concentrations of 10 mM, plate at 28 °C, result shown graphically only (Figures 9 and 10)) is recorded as “inhibitory effect”.

For cobalt ions, the inhibitory effect result is listed as “millimolar to micromolar range”.
